Measured values as given in the METLIN SMRT retention time set (Domingo-Almenara et al. 2019).

Test: gradient 5% acetonitrile 3 min, to 50% in 2 min, to 85% in 15 min, held 3 min, 100 µL/min
Conditions: column: Zorbax Extend-C18 2.1 x 50 mm; eluents: water / acetonitrile, 0.1% formic acid
Outline: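 In both positive and negative ionization mode, a quadrupole time-of-flight mass spectrometer coupled to HPLC analyzed pure standards run in mixtures of ~100 molecules. The Zorbax Extend-C18 column (2.1 × 50 mm, 1.8 μm) was operated at 100 μL/min with water and acetonitrile, each containing 0.1% formic acid. The dead volume was 40 μL and the dwell volume 900 μL. Retention time came from adduct peaks that were computationally picked and individually inspected by hand.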

| RP-LC retention time | Compound |
| --- | --- |
| 645 s | Cc1ccc(NC(=O)N2CCC(CN3CCCC(C)C3)CC2)cc1C (centres undefined) |
| 839 s | CN(CCc1noc(-c2ccc(F)cc2)n1)C(=O)NCc1ccccc1 |
| 696 s | CCNC(=O)C1CCCN(c2nc3ncn(CC(=O)NCc4ccc(Cl)cc4)c(=O)c3s2)C1 (centres undefined) |
| 679 s | CCOCCOC1CCN(C(=O)c2ccoc2)CC1 |
| 676 s | CC(=O)Nc1cccc(NS(=O)(=O)c2ccc3c(c2)OCCCO3)c1 |
| 750 s | Cc1ccc(Nc2c(-c3cccc(O)c3)nc3cnccn23)c(C)c1 |
| 1040 s | Cc1ccc(CNC(=O)C2(C)CCN(S(=O)(=O)c3ccc(C)cc3C)CC2)cc1 |
| 826 s | COc1ccccc1NC(=O)C1CCN(c2cnc(N3CCCCCC3)nc2)CC1 |
| 597 s | CCN1CCCn2cc(S(=O)(=O)NC3CCN(Cc4ccccc4)CC3)cc2C1=O |
| 692 s | Cc1ccc2nc(-c3c(F)cccc3Cl)c(Nc3ccc4c(c3)OCCO4)n2c1 |
| 871 s | COc1cc(OC)cc(-c2nc(Cn3cnc4ccccc4c3=O)no2)c1 |
| 914 s | CCCCN(CC)C(=O)C1CCCN(c2nc3cccnc3s2)C1 (centres undefined) |
| 660 s | COc1ccc2[nH]c(=O)c(CCC(=O)NCC(C)C)cc2c1 |
| 893 s | Cc1ccc2c(c1)N(S(C)(=O)=O)CCC(C(=O)Nc1cccc(OC(C)C)c1)O2 (centres undefined) |
| 639 s | CCCN1CCN(CCNC(=O)C2CCCN(c3ncc(-c4ccccc4)cn3)C2)CC1 (centres undefined) |
| 717 s | O=C(NC1CC1)C1CCN(Cc2cc3ccccc3n2Cc2ccc(Cl)cc2)CC1 |
| 607 s | NC(=O)c1cc(N2CCCC2)nc2c(Cl)cccc12 |
| 920 s | Cc1cc(N2CCC(NC(=O)Nc3ccc(Cl)cc3)C2=O)ccc1F (centres undefined) |
| 599 s | O=C(CN1CCN(Cc2ccccc2)C1=O)NC1CCN(Cc2ccccc2)CC1 |
| 961 s | Cc1nc(-c2ccc(Cl)cc2)sc1C(=O)N1CCN(c2ncccn2)CC1 |
| 1200 s | CCOC(=O)c1ccc2nc(C(F)(F)F)nc(N3CCc4ccccc4C3)c2c1 |
| 704 s | CCN1CCn2c(nc3cc(C(=O)NCc4ccc(Br)cc4)ccc32)C1=O |

| RP-LC retention time | Compound |
| --- | --- |
| 698 s | O=C(Nc1ccc2c(c1)OCCO2)N1CCC(Cc2noc(C3CCOCC3)n2)C1 (centres undefined) |
| 1120 s | Cc1ccc(-c2nc(Nc3cccc(C(F)(F)F)c3)sc2CC(=O)O)c(C)c1 |
| 864 s | O=C(Cc1ccsc1)N1CCC(c2nc(-c3ccccc3)no2)C1 (centres undefined) |
| 756 s | CCCCC(=O)Nc1cc(C(=O)O)ccc1N(C)CC1COCCO1 (centres undefined) |
| 767 s | Cc1cc2c(=O)n(CC(=O)N3CCCc4ccccc43)c3cccnc3n2n1 |
| 1060 s | O=C(CN1C(=O)C(C(=O)N2CCCC2)Sc2ccccc21)NC1CCCCCCC1 (centres undefined) |
| 1190 s | Oc1ccccc1-n1c(-c2ccccc2)ccc1-c1ccccc1 |
| 842 s | CCC(c1cccs1)N1C(=O)[C@H]2CN(S(=O)(=O)c3ccc(C)cc3C)C[C@H]2C1=O (some centres undefined) |
| 803 s | CCOCCCNC(=O)Nc1ccc2c(c1)CCN2S(=O)(=O)c1ccccc1 |
| 741 s | O=C(NC1CC1)C1CCN(c2nc3ccsc3c(=O)n2Cc2ccccc2)CC1 |
| 591 s | Cc1nc(C)c(C(=O)N2CCCC(n3c(C)cnc3C3CCC3)C2)s1 (centres undefined) |
| 670 s | CC(C)(C)NC(=O)c1csc(-c2ccc(N3CCCC3)nc2)n1 |
| 730 s | CCCNC(=O)CN1C(=O)CCn2nc(-c3cn(C)c4ccccc34)cc21 |
| 1030 s | Fc1ccc(OCc2nnc3sc(CCCc4ccccc4)nn23)cc1 |
| 720 s | N#Cc1cc(NC(=O)Cc2nnc(-c3ccc4ncccc4c3)o2)ccc1F |
| 932 s | CCNc1nc(-c2nnc(-c3cccc(C)c3)o2)nc2ccccc12 |
| 870 s | Cc1ccc(-n2c(-c3ccc(Cl)cc3)cn3c4c(=O)n(C)c(=O)n(C)c4nc23)cc1N |
| 865 s | O=C([C@@H]1C[C@H](F)CN1S(=O)(=O)c1ccc(Br)cc1)N1CCCCC1 |
| 604 s | CN(C)C(=O)CC1CCOC2(CCN(C(=O)CCn3cnnn3)CC2)C1 (centres undefined) |
| 570 s | CCCNC(=O)Cc1cn2cc(Br)ccc2n1 |
| 1020 s | CCn1c(=O)c2ccccc2n(Cc2nc(-c3ccccc3Br)no2)c1=O |
| 727 s | CC(=O)c1ccc(NC(=O)Cn2c(N3CCc4ccccc4C3)nc(C)cc2=O)cc1 |

| RP-LC retention time | Compound |
| --- | --- |
| 597 s | Cc1[nH]c(C(=O)N2CCC(CC(=O)NCc3cccnc3)CC2)c(C)c1C(=O)OC(C)C |
| 540 s | O=C(NCC1CCCO1)C(=O)NCC1(O)CCOCC1 (centres undefined) |
| 718 s | COc1ccc(NC(=O)C2CCN(c3cnc4nc(C)c(C)nc4c3)CC2)cc1F |
| 576 s | O=C(CN1CC(c2nc(-c3ncccn3)no2)C1)Nc1ccc(F)c(Cl)c1 |
| 611 s | Cc1ccc(-c2cn3c(n2)N(C(=O)c2nc4ncccn4n2)CCC3)cc1 |
| 816 s | CC(C)c1ccc(NC(=O)Cn2cnc3c2c(=O)n(C)c(=O)n3C)cc1 |
| 730 s | C=CCn1c(C)c(CC(=O)NCCC)c(=O)n2nc(-c3ccccc3)nc12 |
| 806 s | COCCn1c(SCC(=O)Nc2nc3ccccc3s2)nc2c(c1=O)SC(C)C2 (centres undefined) |
| 923 s | O=C(c1cc(-c2ccco2)on1)N1CCCC(c2nnc(-c3ccccc3F)s2)C1 (centres undefined) |
| 991 s | Cc1ccc(C)c(N2C(=O)CN(S(=O)(=O)c3ccccc3)CC2(C)C(=O)NC2CCCC2)c1 (centres undefined) |
| 642 s | CCc1nc(N)n(CC(=O)NCc2ccc(C)cc2)c(=O)c1C |
| 748 s | COc1ccc(-c2c(C)noc2NC(C)=O)cc1S(=O)(=O)Nc1ccc(F)c(F)c1 |
| 947 s | Cc1nc(-c2ccccc2)sc1CC(=O)NCCC1=CCCCC1 |
| 1280 s | COc1cccc(-c2csc(Cc3nc(-c4cccc(Cl)c4)no3)n2)c1 |
| 666 s | CCN(CC)S(=O)(=O)c1ccc2c(c1)CC(C(=O)N1CCN(C3CCCCC3)CC1)N2C(C)=O (centres undefined) |
| 668 s | CC(C)n1c(N2CCCN(C(=O)c3cccnc3)CC2)cc(=O)n(C(C)C)c1=O |
| 860 s | CN1C(=O)c2cc(C(=O)Nc3cccc(Cl)c3)nn2CC1(C)C(=O)NC1CCCCC1 (centres undefined) |
| 645 s | O=C(NCCc1ccccn1)C1CCc2nc(N3CCOCC3)ncc2C1 (centres undefined) |
| 1300 s | Cc1ccc(-n2nc(C)c3sc(N4CCCC(C(=O)NC5CCCc6ccccc65)C4)nc32)cc1 (centres undefined) |
| 958 s | O=C(C1CCCC1)N1CC(c2nc(-c3ccc(F)cc3)no2)C2(CCOCC2)C1 (centres undefined) |
| 600 s | O=C(NCc1ccco1)C1CCCN(C(=O)c2cccn2-c2cccnc2)C1 (centres undefined) |
| 663 s | COc1ccccc1-c1nc(-c2ccc3c(c2)nnn3CCN2CCCCC2)no1 |

| RP-LC retention time | Compound |
| --- | --- |
| 1070 s | CCc1nc2cc(-c3noc(-c4cccc(C#N)c4)n3)ccc2o1 |
| 943 s | Cc1cccc(NC(=O)C2CCN(S(C)(=O)=O)c3cc(C)ccc3O2)c1 (centres undefined) |
| 736 s | CCCNc1cc(N2CCC(CCC(=O)Nc3ccc(OCC)cc3)CC2)ncn1 |
| 987 s | COc1cccc(Cn2c(=O)c3sccc3n(Cc3nc(-c4ccccc4OC)no3)c2=O)c1 |
| 912 s | O=C(Cn1ccc2ccc(N3CCOCC3)nc21)NCc1ccc(F)cc1Cl |
| 873 s | O=C(NCc1ccccc1Cl)c1ccc(NC(=O)C2CCC2)cc1N1CCOCC1 |
| 603 s | COc1ccc(N2CC(C(=O)N3CCC(C(=O)NC4CCS(=O)(=O)C4)CC3)CC2=O)cc1 (centres undefined) |
| 741 s | Cc1ccc(NC(=O)C2CCCN(C(=O)C3Sc4ccccc4NC3=O)C2)cc1 (centres undefined) |
| 887 s | CCNc1nc(-c2ccc(Br)cc2)cs1 |
| 552 s | O=C(C1CCN(c2cncnc2N2CCCC2)CC1)N1CCN(c2ccccn2)CC1 |
| 582 s | CCN(CCN(C)C)c1ccc(NS(=O)(=O)c2ccccc2)cc1C(=O)O |
| 649 s | Fc1ccc(-c2ccc(CNCC3CCCO3)o2)cc1 (centres undefined) |
| 645 s | O=C(NCc1cccc(F)c1)C1CCCN(c2nnc3ccc(Cl)cn23)C1 (centres undefined) |
| 855 s | CCN1C(=O)c2cccnc2Sc2cc(NC(=O)CCc3cccc(OC)c3)ccc21 |
| 589 s | CCN1CCN(C(=O)c2cn(-c3ccc(NC(=O)CC(C)C)cn3)cn2)CC1 |
| 853 s | COc1ccc(C2CCN(C(=O)c3ccoc3)CC2)cc1 |
| 706 s | COc1ccc(-c2nc(NC3CC3)c3ccccc3n2)cc1 |
| 605 s | O=C(CN1CC(c2nc(-c3cccs3)no2)C1)N1CCc2ccccc21 |
| 943 s | Cc1ccc(CNC(=O)C2CCN(Cc3cc4ccccc4n3Cc3cccc(Cl)c3)CC2)o1 |
| 642 s | Cc1nn(CC(=O)NCCCN2CCCC2=O)c(=O)c2nn(-c3ccccc3)c(C)c12 |
| 843 s | Cc1ccc(S(=O)(=O)N2CCC(C(=O)NCC(=O)N3CCCc4ccccc43)CC2)cc1 |
| 778 s | CN(C[C@@H]1COCCO1)S(=O)(=O)Nc1ccc2ccc3ncc(-c4cnn(C)c4)cc3c(=O)c2c1 |

| Compound | RP-LC retention time |
| --- | --- |
| CCNC(=O)C[C@@H]1N=C(c2ccc(Cl)cc2)c2cc(OC)ccc2-n2c(C)nnc21 | 797 s |
